Results taken from US20260137703A1, “2-AMINO-PYRIDO[2,3-D]PYRIMIDIN-7(8H)-ONE AND 7-AMINO-1-PYRIMIDO[4,5-D]PYRIMIDIN-2(1 H)-ONE DERIVATIVES AS EGFR INHIBITORS FOR THE TREATMENT OF CANCER” (Cancer Research Technology Limited, priority 2022, published 2026).

Experiments:
[1] = target: T1, Phospho-EGFR (Tyr1068) in H1975 C797S cells (CRISPR-edited EGFR C797S) (Homo sapiens, UniProt P00533, C797S/L858R/T790M); experiment: HTRF pEGFR/total EGFR in H1975 C797S cells; format: cell-based; conditions: ratio pEGFR/total EGFR, compound 3 hours
T1 construct: host or cells: H1975 C797S (CRISPR-edited)
T1 sequence (P00533 25-1210 T790M/C797S/L858R): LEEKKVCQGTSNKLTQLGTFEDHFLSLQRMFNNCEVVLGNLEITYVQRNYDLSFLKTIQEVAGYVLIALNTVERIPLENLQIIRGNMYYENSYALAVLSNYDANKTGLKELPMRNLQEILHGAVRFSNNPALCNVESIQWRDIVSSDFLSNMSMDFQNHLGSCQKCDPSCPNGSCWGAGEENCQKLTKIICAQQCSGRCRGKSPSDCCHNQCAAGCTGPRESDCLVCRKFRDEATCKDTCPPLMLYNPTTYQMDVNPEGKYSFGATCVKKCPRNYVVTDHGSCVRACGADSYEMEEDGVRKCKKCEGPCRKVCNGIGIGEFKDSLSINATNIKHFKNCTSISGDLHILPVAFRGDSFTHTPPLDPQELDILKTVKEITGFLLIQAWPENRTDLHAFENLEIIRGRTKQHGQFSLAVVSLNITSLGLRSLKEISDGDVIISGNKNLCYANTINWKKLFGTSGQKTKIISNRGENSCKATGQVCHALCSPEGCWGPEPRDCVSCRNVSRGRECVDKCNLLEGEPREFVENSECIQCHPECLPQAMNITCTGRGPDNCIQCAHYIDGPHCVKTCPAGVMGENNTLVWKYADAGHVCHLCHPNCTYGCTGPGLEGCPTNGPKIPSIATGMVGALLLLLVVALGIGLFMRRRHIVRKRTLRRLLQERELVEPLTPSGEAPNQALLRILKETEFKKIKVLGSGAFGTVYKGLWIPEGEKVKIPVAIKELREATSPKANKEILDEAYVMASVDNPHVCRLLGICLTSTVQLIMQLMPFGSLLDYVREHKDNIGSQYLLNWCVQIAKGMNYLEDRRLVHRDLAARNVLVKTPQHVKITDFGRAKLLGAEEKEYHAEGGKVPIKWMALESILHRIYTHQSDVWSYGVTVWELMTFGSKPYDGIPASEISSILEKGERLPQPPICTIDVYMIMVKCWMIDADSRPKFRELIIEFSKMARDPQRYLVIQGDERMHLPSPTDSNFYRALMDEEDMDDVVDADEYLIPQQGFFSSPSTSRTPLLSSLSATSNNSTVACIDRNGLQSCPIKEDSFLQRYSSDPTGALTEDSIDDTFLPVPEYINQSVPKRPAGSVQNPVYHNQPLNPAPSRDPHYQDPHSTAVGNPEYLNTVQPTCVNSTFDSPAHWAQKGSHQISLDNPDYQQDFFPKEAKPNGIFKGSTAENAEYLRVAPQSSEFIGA
Experimental: […]. Once adhered (after 24 h) cells were treated with compounds dissolved in DMSO at a final concentration of 0.1% DMSO in media. Compounds were diluted in media then added to cells for 3 hours in duplicate. Compound and media were removed from the cells, then 50 ul of HTRF lysis buffer was added (lysis buffer was diluted from 4× stock to 1× in DI water, with 1% blocking agent also added). Cells were lysed on a plate shaker (2000 rpm) for 30 minutes at room temperature. pEGFR expression was monitored using the Cisbio Phospho-EGFR (Tyr1068) cellular kit (64EG1PEH). Total EGFR expression was monitored using the Cisbio Total EGFR cellular kit (64NG1PEH) as per manufacturer's instructions. Fluorescence emission was read at two different wavelengths (665 nm and 620 nm) on a PheraStar. Results were calculated as ratio of pEGFR/total EGFR and then percentage of 0 μM control.

[2] = target: T2, Phospho-EGFR (Tyr1068) in H1975 cells (Homo sapiens, UniProt P00533, L858R/T790M); experiment: HTRF pEGFR/total EGFR in H1975 cells; format: cell-based; conditions: ratio pEGFR/total EGFR, compound 3 hours
T2 construct: host or cells: H1975
T2 sequence (P00533 25-1210 T790M/L858R): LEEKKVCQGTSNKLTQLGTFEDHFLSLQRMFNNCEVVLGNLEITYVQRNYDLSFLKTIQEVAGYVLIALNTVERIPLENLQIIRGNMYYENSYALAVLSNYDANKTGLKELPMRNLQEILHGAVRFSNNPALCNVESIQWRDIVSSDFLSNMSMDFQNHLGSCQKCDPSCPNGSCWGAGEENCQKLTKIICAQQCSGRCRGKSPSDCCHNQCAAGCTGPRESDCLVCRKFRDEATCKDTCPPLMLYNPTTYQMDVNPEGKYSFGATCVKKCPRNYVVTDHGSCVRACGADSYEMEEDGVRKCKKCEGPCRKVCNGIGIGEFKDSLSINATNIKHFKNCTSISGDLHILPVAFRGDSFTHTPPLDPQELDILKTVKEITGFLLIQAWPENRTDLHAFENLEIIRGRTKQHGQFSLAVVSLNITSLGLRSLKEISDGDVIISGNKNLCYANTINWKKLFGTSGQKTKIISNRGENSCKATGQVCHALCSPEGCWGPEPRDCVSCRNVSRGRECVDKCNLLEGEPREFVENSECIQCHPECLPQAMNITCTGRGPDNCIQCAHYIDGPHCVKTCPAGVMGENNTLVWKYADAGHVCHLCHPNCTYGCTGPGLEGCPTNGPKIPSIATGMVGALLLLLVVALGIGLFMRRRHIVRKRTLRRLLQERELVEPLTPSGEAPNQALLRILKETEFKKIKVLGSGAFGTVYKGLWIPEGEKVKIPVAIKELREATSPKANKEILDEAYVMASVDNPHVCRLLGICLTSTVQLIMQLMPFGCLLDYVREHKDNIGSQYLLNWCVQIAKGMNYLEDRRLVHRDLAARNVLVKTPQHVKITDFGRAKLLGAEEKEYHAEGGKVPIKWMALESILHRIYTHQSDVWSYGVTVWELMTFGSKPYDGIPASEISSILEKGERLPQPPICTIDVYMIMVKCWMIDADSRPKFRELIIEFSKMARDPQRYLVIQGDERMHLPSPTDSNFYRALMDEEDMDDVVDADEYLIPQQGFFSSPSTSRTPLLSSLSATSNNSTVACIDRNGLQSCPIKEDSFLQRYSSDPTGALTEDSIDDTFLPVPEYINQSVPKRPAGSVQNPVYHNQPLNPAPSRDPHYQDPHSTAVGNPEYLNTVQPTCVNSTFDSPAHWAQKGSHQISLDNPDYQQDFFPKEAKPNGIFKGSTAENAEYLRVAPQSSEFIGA
Experimental: H1975 cells (ATCC CRL-5908) were plated at 20,000 cells per well in 96 well plates and placed at 37° C. 5% CO2. Once adhered (after 24 h) cells were treated with compounds dissolved in DMSO at a final concentration of 0.1% DMSO in media. Compounds were diluted in media then added to cells for 3 hours in duplicate. Compound and media were removed from the cells, then 50 ul of HTRF lysis buffer is added (lysis buffer was diluted from 4× stock to 1× in DI water, with 1% blocking agent also added). Cells were lysed on a plate shaker (2000 rpm) for 30 minutes at room temperature. pEGFR expression was monitored using the Cisbio Phospho-EGFR (Tyri068) cellular kit (64EG1PEH). Total EGFR expression was monitored using the Cisbio Total EGFR cellular kit (64NG1PEH) as per manufacturer's instructions. Fluorescence emission was read at two different wavelengths (665 nm and 620 nm) on a PheraStar. Results were calculated as ratio of pEGFR/total EGFR and then percentage of 0 μM control.

[3] = target: T3, Phospho-EGFR (Tyr1068) in A431 cells (Homo sapiens, UniProt P00533); experiment: HTRF pEGFR/total EGFR in A431 cells with EGF stimulation; format: cell-based; conditions: ratio pEGFR/total EGFR, compound 2.5 hours then 100 ng/ml EGF 30 mins
T3 construct: endogenous in cells; host or cells: A431
T3 sequence (P00533 25-1210): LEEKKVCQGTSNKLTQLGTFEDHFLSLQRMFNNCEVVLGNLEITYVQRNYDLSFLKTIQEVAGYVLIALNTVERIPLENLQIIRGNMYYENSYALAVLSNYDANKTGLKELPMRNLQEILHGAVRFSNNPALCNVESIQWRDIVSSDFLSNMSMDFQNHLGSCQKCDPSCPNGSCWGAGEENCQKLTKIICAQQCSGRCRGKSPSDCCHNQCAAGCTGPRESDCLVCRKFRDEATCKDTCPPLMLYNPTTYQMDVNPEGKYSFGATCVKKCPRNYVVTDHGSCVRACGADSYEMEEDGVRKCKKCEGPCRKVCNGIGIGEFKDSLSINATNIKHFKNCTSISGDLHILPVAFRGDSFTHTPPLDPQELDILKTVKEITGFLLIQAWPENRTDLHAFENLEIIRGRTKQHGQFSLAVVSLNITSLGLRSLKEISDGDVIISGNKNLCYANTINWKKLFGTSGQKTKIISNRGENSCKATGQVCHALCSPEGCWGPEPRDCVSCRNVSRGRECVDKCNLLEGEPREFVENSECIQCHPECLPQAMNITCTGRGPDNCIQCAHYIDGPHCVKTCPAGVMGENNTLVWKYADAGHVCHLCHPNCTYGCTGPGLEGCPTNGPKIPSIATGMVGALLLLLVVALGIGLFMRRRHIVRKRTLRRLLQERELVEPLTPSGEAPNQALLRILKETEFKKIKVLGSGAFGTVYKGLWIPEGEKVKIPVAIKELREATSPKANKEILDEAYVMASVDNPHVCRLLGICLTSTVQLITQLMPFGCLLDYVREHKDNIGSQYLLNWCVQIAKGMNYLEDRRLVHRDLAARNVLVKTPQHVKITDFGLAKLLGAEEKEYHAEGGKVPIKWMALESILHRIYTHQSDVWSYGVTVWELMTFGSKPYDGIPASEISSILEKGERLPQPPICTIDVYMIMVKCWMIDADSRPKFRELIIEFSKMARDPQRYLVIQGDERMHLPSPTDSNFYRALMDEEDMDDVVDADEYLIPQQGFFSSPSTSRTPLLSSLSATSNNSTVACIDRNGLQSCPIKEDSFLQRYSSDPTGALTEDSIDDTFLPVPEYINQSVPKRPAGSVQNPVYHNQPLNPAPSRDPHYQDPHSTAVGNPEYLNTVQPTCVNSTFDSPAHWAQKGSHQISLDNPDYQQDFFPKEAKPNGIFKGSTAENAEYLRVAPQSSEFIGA
Experimental: Cells were plated at 20,000 cells per well in 96 well plates and placed at 37° C. 5% CO2. Once adhered (after 24 h) cells were treated with compounds dissolved in DMSO at a final concentration of 0.1% DMSO in media. Compounds were diluted in media then added to cells for 2.5 hours in duplicate, 100 ng/ml EGF (ThermoFisher, PHG0311) was added to all compound treated cells as well as a control for 30 mins. Compound and media were removed from the cells, then 50 ul of HTRF lysis buffer was added (lysis buffer was diluted from 4× stock to 1× in DI water, with 1% blocking agent also added). Cells were lysed on a plate shaker (2000 rpm) for 30 minutes at room temperature. pEGFR expression was monitored using the Cisbio Phospho-EGFR (Tyr1068) cellular kit (64EG1PEH). Total EGFR expression was monitored using the Cisbio Total EGFR cellular kit (64NG1PEH) as per manufacturer's instructions. Fluorescence emission was read at two different wavelengths (665 nm and 620 nm) on a PheraStar. Results were calculated as ratio of pEGFR/total EGFR and then percentage of 0 μM control.

[4] = target: CtermHisTag-mEGFR Wild type (Homo sapiens, UniProt P00533); experiment: biochemical
Chain of CtermHisTag-mEGFR Wild type (P00533 whole entry): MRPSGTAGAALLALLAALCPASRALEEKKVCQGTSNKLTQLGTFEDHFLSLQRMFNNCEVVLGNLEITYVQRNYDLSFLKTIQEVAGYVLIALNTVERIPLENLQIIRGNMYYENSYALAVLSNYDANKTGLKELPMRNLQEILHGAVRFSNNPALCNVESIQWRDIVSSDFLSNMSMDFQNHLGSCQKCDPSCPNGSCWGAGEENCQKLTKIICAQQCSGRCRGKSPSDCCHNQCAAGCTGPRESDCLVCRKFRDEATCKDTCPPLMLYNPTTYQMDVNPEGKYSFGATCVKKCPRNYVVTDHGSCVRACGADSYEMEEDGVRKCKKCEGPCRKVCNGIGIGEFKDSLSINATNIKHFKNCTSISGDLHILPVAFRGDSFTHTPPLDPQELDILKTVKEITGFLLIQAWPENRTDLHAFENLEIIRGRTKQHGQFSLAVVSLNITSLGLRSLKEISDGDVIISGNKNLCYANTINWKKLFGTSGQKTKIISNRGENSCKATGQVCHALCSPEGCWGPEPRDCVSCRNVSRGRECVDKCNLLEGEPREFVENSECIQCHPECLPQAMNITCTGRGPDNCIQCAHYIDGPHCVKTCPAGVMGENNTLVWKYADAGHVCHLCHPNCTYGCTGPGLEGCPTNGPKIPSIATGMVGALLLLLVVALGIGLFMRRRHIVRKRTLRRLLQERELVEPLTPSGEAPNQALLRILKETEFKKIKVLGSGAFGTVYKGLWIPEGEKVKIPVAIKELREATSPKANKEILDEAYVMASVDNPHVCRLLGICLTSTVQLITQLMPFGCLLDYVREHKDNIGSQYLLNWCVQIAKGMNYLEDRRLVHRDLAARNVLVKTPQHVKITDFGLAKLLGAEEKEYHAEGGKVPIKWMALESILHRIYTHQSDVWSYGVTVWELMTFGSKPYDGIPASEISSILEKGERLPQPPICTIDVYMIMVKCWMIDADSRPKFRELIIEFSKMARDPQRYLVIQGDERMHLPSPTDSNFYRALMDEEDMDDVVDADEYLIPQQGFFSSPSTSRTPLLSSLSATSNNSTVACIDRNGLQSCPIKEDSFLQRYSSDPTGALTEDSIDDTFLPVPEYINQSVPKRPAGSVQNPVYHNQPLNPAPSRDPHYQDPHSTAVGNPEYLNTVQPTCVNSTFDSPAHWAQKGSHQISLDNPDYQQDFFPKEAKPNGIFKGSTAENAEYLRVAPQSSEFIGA

| Compound | IC50 [1] | IC50 [2] | IC50 [3] | IC50 [4] |
| --- | --- | --- | --- | --- |
| C#Cc1cc(=O)n(C)c2nc(Nc3ccc(N4CCN(C)CC4)c(OCCC(C)C)c3)ncc12 [Example 216, 5-Ethynyl-2-((3-(isopentyloxy)-4-(4-methylpiperazin-1-yl)phenyl)amino)-8-methylpyrido[2,3-d]pyrimidin-7(8H)-one] | < 500 nM | < 500 nM | 1000 to 3000 nM | < 1000 nM |
| C#Cc1cc(=O)n(-c2ccc(OC)cc2OC)c2nc(Nc3ccc(N(C)CCN(C)C)cc3)ncc12 [Example 86, 8-(2,4-Dimethoxyphenyl)-2-[(4-{[2-(dimethylamino)ethyl](methyl)amino}phenyl)amino]-5-ethynylpyrido[2,3-d]pyrimidin-7-one] | 500 to 1000 nM | < 500 nM | 1000 to 3000 nM | < 1000 nM |
| C#Cc1cc(=O)n(C)c2nc(Nc3cccc(N(C)CCN(C)C)c3)ncc12 [Example 52, 2-[(3-{[2-(Dimethylamino)ethyl](methyl)amino}phenyl)amino]-5-ethynyl-8-methylpyrido[2,3-d]pyrimidin-7-one] | < 500 nM | < 500 nM | > 3000 nM | < 1000 nM |
| C#Cc1cc(=O)n2c3nc(ncc13)Nc1ccc(N3CCN(CCOC)CC3)c(c1)OCCCC2 [Example 241, 1^5-Ethynyl-3^4-(4-(2-methoxyethyl)piperazin-1-yl)-1^7,1^8-dihydro-4-oxa-2-aza-1(2,8)-pyrido[2,3-d]pyrimidina-3(1,3)-benzenacyclooctaphan-1^7-one] | < 500 nM | < 500 nM | 500 to 1000 nM | < 1000 nM |
| C#Cc1cc(=O)n(-c2cccc([N+](=O)[O-])c2)c2nc(Nc3ccccc3OC)ncc12 [Example 54, 5-Ethynyl-2-((2-methoxyphenyl)amino)-8-(3-nitrophenyl)pyrido[2,3-d]pyrimidin-7(8H)-one] | > 3000 nM | > 3000 nM | > 3000 nM | > 10000 nM |
| C#Cc1cc(=O)n([C@H]2CC[C@@H](NC(C)=O)CC2)c2nc(Nc3ccc(N(C)CCN(C)C)cc3)ncc12 [Example 79, N-[(1s,4s)-4-{2-[(4-{[2-(Dimethylamino)ethyl](methyl)amino}phenyl)amino]-5-ethynyl-7-oxopyrido[2,3-d]pyrimidin-8-yl}cyclohexyl]acetamide] | < 500 nM | < 500 nM | 1000 to 3000 nM | < 1000 nM |
| C#Cc1cc(=O)n([C@H]2CC[C@@H](NC(=O)CC(=O)NC)CC2)c2nc(Nc3ccc(N4CCN(C)CC4)cc3)ncc12 [Example 94, N-Methyl-N′-[(1s,4s)-4-(5-ethynyl-2-{[4-(4-methylpiperazin-1-yl)phenyl]amino}-7-oxopyrido[2,3-d]pyrimidin-8-yl)cyclohexyl]propanediamide] | 500 to 1000 nM | 500 to 1000 nM | > 3000 nM | 1000 to 10000 nM |
| C#Cc1cc(=O)n(C2CCCC2O)c2nc(Nc3ccc(N4CCN(C)CC4)cc3)ncc12 (stereo not shown) [Example 73, 5-Ethynyl-8-(2-hydroxycyclopentyl)-2-((4-(4-methylpiperazin-1-yl)phenyl)amino)pyrido[2,3-d]pyrimidin-7(8H)-one] | 1000 to 3000 nM | 500 to 1000 nM | > 3000 nM | 1000 to 10000 nM |
| C#Cc1cc(=O)n(-c2ccc(NC(C)=O)cc2)c2nc(Nc3ccccc3OC)ncc12 [Example 62, N-(4-(5-Ethynyl-2-((2-methoxyphenyl)amino)-7-oxopyrido[2,3-d]pyrimidin-8(7H)-yl)phenyl)acetamide] | > 3000 nM | > 3000 nM | > 3000 nM | 1000 to 10000 nM |
| C#Cc1c(C)c(=O)n([C@H]2CC[C@@H](NC(C)=O)CC2)c2nc(Nc3ccc(N4CCN(C)CC4)cc3)ncc12 [Example 103, N-[(1s,4s)-4-(5-ethynyl-6-methyl-2-{[4-(4-methylpiperazin-1-yl)phenyl]amino}-7-oxopyrido[2,3-d]pyrimidin-8-yl)cyclohexyl]acetamide] | 1000 to 3000 nM | 1000 to 3000 nM | 1000 to 3000 nM | 1000 to 10000 nM |
| C#Cc1cc(=O)n(-c2ccccc2)c2nc(Nc3ccc(N(C)C(=O)CCOC)cc3OC)ncc12 [Example 36, N-(4-((5-Ethynyl-7-oxo-8-phenyl-7,8-dihydropyrido[2,3-d]pyrimidin-2-yl)amino)-3-methoxyphenyl)-3-methoxy-N-methylpropanamide] | 1000 to 3000 nM | 1000 to 3000 nM | > 3000 nM | 1000 to 10000 nM |
| C#Cc1cc(=O)n(C2CCCC2)c2nc(Nc3cccc(N(C)[C@H]4CC[C@H](CS(C)(=O)=O)CC4)c3)ncc12 [Example 206] | > 3000 nM | > 3000 nM | > 3000 nM | < 1000 nM |
| C#Cc1cc(=O)n(C2CCCC2)c2nc(Nc3cccc4c3CN(C)C4)ncc12 [Example 184, 8-Cyclopentyl-5-ethynyl-2-[(2-methvl-1,3-dihydroisoindol-4-yl)amino]pyrido[2,3-d]pyrimidin-7-one] | > 3000 nM | > 3000 nM | > 3000 nM | 1000 to 10000 nM |
| C#Cc1cc(=O)n2c3nc(ncc13)Nc1ccc(N3CCN(C)CC3)c(c1)CC(=O)NCC2 [Example 197, 1^5-Ethynyl-3^4-(4-methylpiperazin-1-yl)-1^7,1^8-dihydro-2,6-diaza-1(2,8)-pyrido[2,3-d]pyrimidina-3(1,3)-benzenacyclooctaphane-1^7,5-dione] | 1000 to 3000 nM | 1000 to 3000 nM | > 3000 nM | > 10000 nM |
| C#Cc1cc(=O)n2c3nc(ncc13)Nc1cccc(c1)COC/C=C\C2 [Example 195, (Z)-1^5-ethynyl-1^7,1^8-dihydro-5-oxa-2-aza-1(2,8)-pyrido[2,3-d]pyrimidina-3(1,3)-benzenacyclononaphan-7-en-1^7-one] | > 3000 nM | 500 to 1000 nM | > 3000 nM | < 1000 nM |
| C#Cc1cc(=O)n(CC2CCOC2)c2nc(Nc3ccc(N4CCN(C)CC4)cc3)ncc12 (stereo not shown) [Example 70, 5-Ethynyl-2-((4-(4-methylpiperazin-1-yl)phenyl)amino)-8-((tetrahydrofuran-3-yl)methyl)pyrido[2,3-d]pyrimidin-7(8H)-one] | < 500 nM | < 500 nM | > 3000 nM | < 1000 nM |
| C#Cc1cc(=O)n(C)c2nc(Nc3ccc(N(C)CCN(C)C)cc3)ncc12 [Example 43, 2-[(4-{[2-(Dimethylamino)ethyl](methyl)amino}phenyl)amino]-5-ethynyl-8-methylpyrido[2,3-d]pyrimidin-7-one] | < 500 nM | < 500 nM | > 3000 nM | 1000 to 10000 nM |
| C#Cc1cc(=O)n(C2CCOC2)c2nc(Nc3ccc(N4CCN(C)CC4)cc3)ncc12 (stereo not shown) [Example 105, 5-ethynyl-2-{[4-(4-methylpiperazin-1-yl)phenyl]amino}-8-(oxolan-3-yl)pyrido[2,3-d]pyrimidin-7-one] | 1000 to 3000 nM | 1000 to 3000 nM | > 3000 nM | > 10000 nM |
| C#Cc1cc(=O)n(-c2ccccc2)c2nc(Nc3ccc(N4CCN(C5COC5)CC4)cc3)ncc12 [Example 18, 5-Ethynyl-2-({4-[4-(oxetan-3-yl)piperazin-1-yl]phenyl}amino)-8-phenylpyrido[2,3-d]pyrimidin-7-one] | < 500 nM | < 500 nM | 1000 to 3000 nM | < 1000 nM |
